# Laboratory results: patent publication US20260284153A1, “COMPOSITION COMPRISING GV1001 FOR PREVENTING OR TREATING PERIODONTAL DISEASES AND DISORDERS CAUSED BY PERIODONTAL DISEASES” (GEMVAX & KAEL CO., LTD., priority 2023, published 2026)
# What was measured:
# [1] = tested on: Porphyromonas gingivalis-induced periodontitis; assay: Periodontitis efficacy in Pg-treated, ligature-placed, high-fat-diet ApoE-/- mouse model; type: in vivo, ApoE−/− mice (C57BL/6 background)
# Text: (§1) An animal model was created using ApoE^−/^− mice (C57BL/6 background, male, 4 weeks old).
# (§2) Animal models were fed with a high-fat diet (HFD), and a 6-0 silk ligature was placed around the maxillary second molar to create a gingival pocket using the ligature placement method for 1 week, followed by treatment with Porphyromonas gingivalis (Pg) or PBS for 5 weeks.
# (§3) The depth of the periodontal pocket, the expression level of inflammatory cytokines in the gingival tissue (mRNA level, IF staining), the aggregation of Porphyromonas gingivalis, Porphyromonas gingivalis LPS, Kgp and RgpB in the gingival tissue, the amount of alveolar bone loss, and the number of osteoclasts in the alveolar bone were determined. Further, the effect on osteoclastogenesis was confirmed in an in vitro test.
# [2] = tested on: Raw264.7; assay: In vitro osteoclastogenesis of macrophage cell line induced into osteoclasts; type: cell-based; settings: Raw264.7 induced into osteoclasts; FIGS. 6A to 6E
# Experimental: as §3
# To confirm the efficacy of GV1001 on alveolar bone loss, μCT was used to determine alveolar bone loss in a periodontitis-induced animal model (FIGS. 4A to 4C), and the number of osteoclasts in the alveolar bone was determined by TRAP staining (FIGS. 5A and 5B).
# [3] = tested on: atherosclerosis induced by periodontitis; assay: Periodontitis-related atherosclerosis efficacy in Pg-treated ApoE-/- mouse model; type: in vivo, ApoE−/− mice (C57BL/6 background); settings: GV1001 2 mg/kg i.p., vs control
# Text: as §1, §2
# (§4) The expression levels of inflammatory cytokines in serum and arterial tissue, the aggregation of Porphyromonas gingivalis, Porphyromonas gingivalis LPS, Kgp and RgpB in arterial tissue, changes in cholesterol levels in serum, and lipid deposition (atherosclerosis) in the arterial wall were determined. In vitro, inhibition of EndMT and inhibition of macrophage uptake of dil-ox-LDL were evaluated. Further, the CD47 expression levels were determined in the aortic root in vivo and in vitro.
# [4] = tested on: human umbilical vein endothelial cells (HUVECs); assay: EndMT of HUVECs stimulated with TNF-α and Porphyromonas gingivalis LPS; type: cell-based; settings: FIGS. 13A, 13B
# Experimental: as §4
# It is known that when endothelial cells (ECs) change their phenotype into mesenchymal cells (MCs) through endothelial-to-mesenchymal transition (EndMT), it induces various vascular diseases (atherosclerosis, pulmonary hypertension, fibrosis, etc.). TNF-α is known as a cytokine involved in this process. In the present invention, it was confirmed that when human umbilical vein endothelial cells (HUVECs) were stimulated with TNF-α and Porphyromonas gingivalis LPS, ECs (marker; CD31) were decreased while MCs (marker; FSP-1) were increased due to EndMT (FIGS. 13A and 13B). • Control group: EndMT of HUVECs was confirmed to progress by TNF-α and Porphyromonas gingivalis LPS. • GV1001 administration group: The EndMT progression of HUVECs was confirmed to be inhibited by GV1001. […]
# [5] = tested on: macrophages differentiated from THP-1 (human monocyte cell line) cells; assay: ox-LDL uptake by macrophages differentiated from THP-1 cells; type: cell-based; settings: induced by TNF-α and Porphyromonas gingivalis LPS; THP-1-derived macrophages; FIGS. 14A, 14B
# Experimental: as §4
# It is known that the formation of foam cells by macrophages in response to LDL and TNF-α is an important process in atherosclerosis. […] As a result, this means that the inhibition of atherogenesis by GV1001 is partly due to its inhibitory effect on foam cell formation.
# [6] = tested on: CD47 in human coronary artery smooth muscle cells (HCASMC); assay: CD47 expression in HCASMC treated with TNF-α and Porphyromonas gingivalis LPS; type: cell-based; settings: TNF-α and Porphyromonas gingivalis LPS treatment; FIGS. 16A to 16F
# Experimental: as §4
# CD47, a representative anti-phagocytic factor, is known to interfere with the removal of cancer cells by macrophages, and overexpression of CD47 is known to cause atherosclerosis. In the present invention, the expression level of CD47 in the aortic root was confirmed in an animal model of periodontitis induction (FIGS. 15A and 15B). […] 2.3 Effect of GV1001 in Alzheimer's Disease Associated with Periodontitis
# [7] = tested on: Alzheimer's disease induced by periodontitis; assay: Periodontitis-related Alzheimer's disease efficacy in Pg-treated ApoE-/- mouse model; type: in vivo, ApoE−/− mice (C57BL/6 background); settings: GV1001 2 mg/kg i.p., vs control
# Text: as §1, §2
# The expression levels of inflammatory cytokines, the aggregation of Porphyromonas gingivalis, Porphyromonas gingivalis LPS and Kgp, RgpB, and the accumulation of Aβ42 and p-Tau in brain tissue were confirmed.
# [8] = tested on: gingipain (RgpA, RgpB, Kgp); assay: In vitro expression of gingipain in Porphyromonas gingivalis; type: cell-based; settings: FIG. 23
# Experimental: To understand the fundamental mechanism of Porphyromonas gingivalis colony formation, and the reduction of Porphyromonas gingivalis LPS and gingipain by GV1001 in gingival tissues, arterial walls and brain, the effect of GV1001 on the expression of gingipain, which is an enzyme important for the growth and tissue invasion of Porphyromonas gingivalis, was investigated. […] Very low doses (5-30 μM) of GV1001 reduced the expression of RgpA and RgpB by approximately 5 times and the expression of Kgp by approximately 3 times, compared with the control group (Porphyromonas gingivalis 16S IRNA) (FIG. 23).
# [9] = GV1001 2 mg/kg i.p., vs control, FIGS. 3A, 3B
# [10] = 5-30 μM GV1001, compared with the control group (Porphyromonas gingivalis 16S IRNA)
substance,measurement,setting,value
"GV1001: peptide consisting of 16 amino acids, SEQ ID NO: 1, derived from human telomerase reverse transcriptase (hTERT) (EARPALLTSRLRFIPK; UniProt O14746 611-626, looked up, fragment)","inflammatory cytokine (IL-1β, TNF-α, IL-6) mRNA levels in periodontal tissue","[1]; GV1001 2 mg/kg i.p. 3 times/week for 10 weeks, vs periodontitis control, FIG. 1",significantly reduced
same,"inflammatory cytokines (IL-1β, TNF-α, IL-6, GM-CSF, VEGF, IL-17, KC) in serum","[1]; GV1001 2 mg/kg i.p., all cytokines, vs control, FIGS. 7A, 7B",significantly suppressed
same,Porphyromonas gingivalis LPS in gingival tissue,[1]; [9],significantly reduced
same,"gingipain (Kgp, RgpB) in gingival tissue",[1]; [9],significantly reduced
same,number of Porphyromonas gingivalis colonies in gingival tissue,[1]; [9],significantly reduced
same,alveolar bone loss (μCT),"[1]; GV1001 2 mg/kg i.p., vs control, FIGS. 4A to 4C",significantly reduced
same,"osteoclastogenesis in alveolar bone (number of osteoclasts, TRAP staining)","[1]; GV1001 2 mg/kg i.p., vs control, FIGS. 5A, 5B",significantly inhibited
same,inflammatory cytokine expression in periodontal tissue by fluorescent staining,"[1]; GV1001 2 mg/kg i.p., vs periodontitis control, FIGS. 2A, 2B",decrease in cytokine expression was confirmed
same,osteoclastogenesis in vitro,[2],significantly inhibited
same,"inflammatory cytokine (IL-1β, TNF-α, IL-6) mRNA levels in arterial tissue",[3]; FIG. 8,significantly reduced
same,inflammatory cytokine expression in arterial tissue by fluorescent staining,"[3]; FIGS. 9A, 9B",decrease in cytokine expression was confirmed
same,Porphyromonas gingivalis LPS in the arterial wall,"[3]; FIGS. 10A, 10B",significantly reduced
same,"gingipain (Kgp, RgpB) in the arterial wall","[3]; FIGS. 10A, 10B",significantly reduced
same,number of Porphyromonas gingivalis colonies in the arterial wall,"[3]; FIGS. 10A, 10B",significantly reduced
same,level of low-density lipoprotein (LDL) in serum,"[3]; FIGS. 11A, 11B",significantly reduced
same,level of total cholesterol (TC) in serum,"[3]; FIGS. 11A, 11B",significantly reduced
same,expression level of CD47 in the aortic root,"[3]; FIGS. 15A, 15B",significantly reduced
same,"intravascular lipid deposition, wall of the aorta-iliac bifurcation","[3]; Sudan IV and Oil Red O staining, FIGS. 12A, 12B",significantly suppressed
same,"EndMT progression of HUVECs (CD31, FSP-1 markers)",[4],inhibited
same,ox-LDL uptake,[5],significantly inhibited
same,expression level of CD47 in HCASMC,[6],significantly reduced
same,"inflammatory cytokine (IL-1β, TNF-α, IL-6) mRNA levels in brain tissue",[7]; FIG. 17,significantly reduced
same,inflammatory cytokine expression in brain tissue by fluorescent staining,[7]; FIGS. 18A to 19B,decrease in cytokine expression was confirmed
same,Porphyromonas gingivalis LPS in the cerebral cortex and hippocampus,[7]; FIGS. 20A to 21B,significantly reduced
same,"gingipain (Kgp, RgpB) in the cerebral cortex and hippocampus",[7]; FIGS. 20A to 21B,significantly reduced
same,number of Porphyromonas gingivalis colonies in the cerebral cortex and hippocampus,[7]; FIGS. 20A to 21B,significantly reduced
same,accumulation of Aβ42 in the cerebral cortex and hippocampus,"[7]; FIGS. 22A, 22B",significantly reduced
same,accumulation of p-Tau in the cerebral cortex and hippocampus,"[7]; FIGS. 22A, 22B",significantly reduced
same,reduction of expression of Kgp,[8]; [10],approximately 3 times
same,reduction of expression of RgpA,[8]; [10],approximately 5 times
same,reduction of expression of RgpB,[8]; [10],approximately 5 times
same,expression of gingipain in vitro,[8],markedly inhibited
